{"source": "patent US20210323950A1", "about": "“HERBICIDALLY ACTIVE BICYCLIC BENZOYLPYRAZOLES” (Bayer Aktiengesellschaft, priority 2018, published 2021)", "type_in_all_cases": "in vivo", "settings_in_all_cases": "320 g/ha, scored visually after about 3 weeks vs untreated controls", "key": {"[1]": {"tested_on": "Veronica persica (VERPE)", "experiment": "Pre-emergence herbicidal action against VERPE", "from_the_text": "(§1) VERPE: Veronica persica 1. Pre-Emergence Herbicidal Action and Crop Plant Compatibility Seeds of monocotyledonous and dicotyledonous weed plants and crop plants are placed in plastic or organic planting pots and covered with soil. The compounds of the invention, formulated in the form of wettable powders (WP) or as emulsion concentrates (EC), are then applied onto the surface of the covering soil as aqueous suspension or emulsion with addition of 0.5% additive at a water application rate of […] (converted). After the treatment, the pots are placed in a greenhouse and kept under good growth conditions for the trial plants. After about 3 weeks, the effect of the preparations is scored visually in comparison with untreated controls as percentages. The tables below show the herbicidal activity of numerous compounds according to the invention against important harmful plants. For example, 100% activity=the plants have died, 0% activity=like control plants."}, "[2]": {"tested_on": "Viola tricolor (VIOTR)", "experiment": "Pre-emergence herbicidal action against VIOTR", "from_the_text": "as §1, with “VIOTR: Viola tricolor” for “VERPE: Veronica persica”"}, "[3]": {"tested_on": "Amaranthus retroflexus (AMARE)", "experiment": "Pre-emergence herbicidal action against AMARE", "summary_of_the_method": "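Formulated compounds (WP or EC) sprayed onto soil covering sown seeds, with 0.5% additive at […] water (converted). Greenhouse-grown about 3 weeks, then damage scored visually as percent versus untreated controls (100% = dead, 0% = like control).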"}, "[4]": {"tested_on": "Stellaria media (STEME)", "experiment": "Pre-emergence herbicidal action against STEME", "summary_of_the_method": "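Weed seeds are sown in pots under soil, and WP or EC formulations are applied pre-emergence to the soil surface as an aqueous suspension or emulsion with 0.5% additive. After about 3 weeks in the greenhouse, effect is scored visually as % versus untreated controls (100% = plants dead, 0% = like control).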"}, "[5]": {"tested_on": "Abutilon theophrasti (ABUTH)", "experiment": "Pre-emergence herbicidal action against ABUTH", "from_the_text": "as §1, with “ABUTH: Abutilon theophrasti” for “VERPE: Veronica persica”"}, "[6]": {"tested_on": "Cyperus esculentus (CYPES)", "experiment": "Pre-emergence herbicidal action against CYPES", "from_the_text": "as §1, with “CYPES: Cyperus esculentus” for “VERPE: Veronica persica”"}, "[7]": {"tested_on": "Echinochloa crus-galli (ECHCG)", "experiment": "Pre-emergence herbicidal action against ECHCG", "from_the_text": "as §1, with “ECHCG: Echinochloa crus-galli” for “VERPE: Veronica persica”"}, "[8]": {"tested_on": "Setaria viridis (SETVI)", "experiment": "Pre-emergence herbicidal action against SETVI", "from_the_text": "as §1, with “SETVI: Setaria viridis” for “VERPE: Veronica persica”"}}}
{"smiles": "Cn1ncc(C(=O)c2ccc(C(F)(F)F)c3c2OCS3(=O)=O)c1O", "note": "[Example 1-43]", "values": [{"measurement": "Pre-emergence action against VERPE", "setting": "[1]", "result": 100, "unit": "%"}, {"measurement": "Pre-emergence action against VIOTR", "setting": "[2]", "result": 100, "unit": "%"}, {"measurement": "Pre-emergence action against AMARE", "setting": "[3]", "result": 100, "unit": "%"}, {"measurement": "Pre-emergence action against STEME", "setting": "[4]", "result": 90, "unit": "%"}, {"measurement": "Pre-emergence action against ABUTH", "setting": "[5]", "result": 90, "unit": "%"}, {"measurement": "Pre-emergence action against CYPES", "setting": "[6]", "result": 100, "unit": "%"}, {"measurement": "Pre-emergence action against ECHCG", "setting": "[7]", "result": 100, "unit": "%"}, {"measurement": "Pre-emergence action against SETVI", "setting": "[8]", "result": 100, "unit": "%"}]}
